According to publication PMC4122359, “Conformational Dynamics of Escherichia coli Flavodoxins in Apo- and Holo-States by Solution NMR Spectroscopy” (PLoS ONE, 2014):

Legend:
FldA = biological target: T1, FldA (Escherichia coli, UniProt P61949); assay: solution NMR structure of holo-form; […] HSQC titration; format: binding; settings: oxidized FMN, non-covalent; pH 7.0, 30 mM sodium phosphate, 30 mM NaCl, 25 °C
T1 construct: monomer; long-chain flavodoxin
T1 sequence (P61949 1-176): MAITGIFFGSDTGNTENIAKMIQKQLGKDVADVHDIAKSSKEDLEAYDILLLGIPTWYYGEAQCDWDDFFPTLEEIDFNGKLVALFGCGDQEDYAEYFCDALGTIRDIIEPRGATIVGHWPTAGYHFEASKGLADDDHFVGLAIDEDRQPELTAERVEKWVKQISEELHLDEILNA

YqcA = biological target: T2, YqcA (Escherichia coli, UniProt P65367); assay: as above; format: binding; settings: oxidized FMN, non-covalent; slow exchange; pH 7.0, 30 mM sodium phosphate, 30 mM NaCl, 25 °C
T2 construct: monomer; short-chain flavodoxin
T2 sequence (P65367 whole entry): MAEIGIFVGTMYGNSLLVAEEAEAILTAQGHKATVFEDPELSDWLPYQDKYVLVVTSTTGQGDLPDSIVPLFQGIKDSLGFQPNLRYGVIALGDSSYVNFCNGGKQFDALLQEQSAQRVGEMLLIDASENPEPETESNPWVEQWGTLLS

Cc1cc2nc3c(=O)[nH]c(=O)nc-3n(C[C@H](O)[C@H](O)[C@H](O)COP(=O)(O)O)c2cc1C [FMN]
solution NMR structure of holo-form; 15N HSQC titration (FldA): FMN titration experiments were performed with FldA | solution NMR structure of holo-form; 15N HSQC titration (YqcA): These results demonstrate that YqcA binds FMN with high affinity
